Assay results from the NIST ThermoML archive (doi:10.1021/je060271a).

Conditions: 303.15 K, Liquid, Vibrating tube method

CCCCC(=O)OCC(COC(=O)CCCC)(COC(=O)CCCC)COC(=O)CCCC [pentaerythritol tetrapentanoate]
Conditions	mass density [kg/m3]
24416 kPa	1025.8
24455 kPa	1025.9
24486 kPa	1025.8
24518 kPa	1026
24556 kPa	1025.8
24588 kPa	1025.8
24618 kPa	1026.1
24648 kPa	1025.9
24685 kPa	1026.1
24717 kPa	1026
24757 kPa	1026
24790 kPa	1025.9
24823 kPa	1026.1
24863 kPa	1026.1
24893 kPa	1026.2
24922 kPa	1026
24956 kPa	1026.1
24986 kPa	1026.1
25015 kPa	1026.2
25045 kPa	1026.1
25080 kPa	1026.2
25109 kPa	1026.2
25144 kPa	1026.2
25174 kPa	1026.2
25203 kPa	1026.3
25233 kPa	1026.4
25269 kPa	1026.3
25298 kPa	1026.2
25328 kPa	1026.3
25364 kPa	1026.3
25394 kPa	1026.4
25430 kPa	1026.2
25460 kPa	1026.4
25490 kPa	1026.3
25527 kPa	1026.3
25558 kPa	1026.5
25588 kPa	1026.4
25624 kPa	1026.5
25654 kPa	1026.6
25686 kPa	1026.6
25753 kPa	1026.5
25785 kPa	1026.6
25816 kPa	1026.6
25854 kPa	1026.6
25885 kPa	1026.7
25916 kPa	1026.7
25954 kPa	1026.8
25985 kPa	1026.7
26023 kPa	1026.6
26054 kPa	1026.7
26086 kPa	1026.8
26119 kPa	1026.7
26157 kPa	1026.8
26190 kPa	1026.8
26222 kPa	1027
26261 kPa	1026.9
26294 kPa	1026.9
26326 kPa	1027
26365 kPa	1027
26398 kPa	1026.9
26431 kPa	1027
26469 kPa	1027
26503 kPa	1027
26536 kPa	1027
26575 kPa	1027.2
26609 kPa	1027
26642 kPa	1027
26686 kPa	1027.2
26712 kPa	1027.1
26753 kPa	1027.2
26787 kPa	1027.1
26822 kPa	1027.2
26863 kPa	1027.3
26897 kPa	1027.2
26931 kPa	1027.2
26966 kPa	1027.3
27007 kPa	1027.3
27042 kPa	1027.2
27077 kPa	1027.3
27119 kPa	1027.3
27156 kPa	1027.3
27191 kPa	1027.3
27233 kPa	1027.5
27268 kPa	1027.3
27303 kPa	1027.5
27338 kPa	1027.4
27381 kPa	1027.4
27416 kPa	1027.6
27452 kPa	1027.5
27495 kPa	1027.6
27531 kPa	1027.5
27574 kPa	1027.6
27611 kPa	1027.7
27647 kPa	1027.7
27683 kPa	1027.6
27727 kPa	1027.6
27763 kPa	1027.7
27800 kPa	1027.6
27844 kPa	1027.8
27881 kPa	1027.8
27919 kPa	1027.7
27964 kPa	1027.8
28003 kPa	1027.8
28041 kPa	1027.8
28089 kPa	1027.9
28128 kPa	1027.9
28160 kPa	1027.9
28193 kPa	1027.8
28221 kPa	1027.9
28249 kPa	1028
28282 kPa	1028
28310 kPa	1028
28338 kPa	1028
28366 kPa	1028
28399 kPa	1028
28427 kPa	1027.9
28461 kPa	1028.1
28489 kPa	1028
28518 kPa	1028.1
28546 kPa	1028.1
28580 kPa	1028
28609 kPa	1028.1
28638 kPa	1028.2
28672 kPa	1028.1
28700 kPa	1028.2
28729 kPa	1028.2
28764 kPa	1028.3
28792 kPa	1028.2
28821 kPa	1028.3
28856 kPa	1028.3
28885 kPa	1028.5
28915 kPa	1028.3
28950 kPa	1028.4
28978 kPa	1028.3
29008 kPa	1028.4
29043 kPa	1028.4
29072 kPa	1028.4
29102 kPa	1028.5
29132 kPa	1028.5
29168 kPa	1028.4
29198 kPa	1028.4
29228 kPa	1028.5
29264 kPa	1028.6
29294 kPa	1028.6
29325 kPa	1028.5
29356 kPa	1028.5
29392 kPa	1028.5
29422 kPa	1028.6
29453 kPa	1028.6
29483 kPa	1028.6
29520 kPa	1028.7
29550 kPa	1028.7
29587 kPa	1028.7
29617 kPa	1028.6
29648 kPa	1028.8
29684 kPa	1028.7
29716 kPa	1028.7
29749 kPa	1028.8
29779 kPa	1028.8
29810 kPa	1028.8
